Test results as given in US8138189B2, “Substituted benzene compounds as modulators of the glucocorticoid receptor” (Hoffman-La Roche Inc., priority 2009, dated 2012).
pKi: −log10 of the molar value.

These compounds were tested against T1, full length human recombinant glucocorticoid receptor (Homo sapiens, UniProt P04150) (assay: Glucocorticoid Receptor Binding Assay (fluorescence polarization competitor assay, Fluormone GS Far Red tracer)).
T1 construct: partially purified full length human recombinant glucocorticoid receptor; purchased Panvera/Invitrogen PV4302
T1 sequence (P04150 1-777): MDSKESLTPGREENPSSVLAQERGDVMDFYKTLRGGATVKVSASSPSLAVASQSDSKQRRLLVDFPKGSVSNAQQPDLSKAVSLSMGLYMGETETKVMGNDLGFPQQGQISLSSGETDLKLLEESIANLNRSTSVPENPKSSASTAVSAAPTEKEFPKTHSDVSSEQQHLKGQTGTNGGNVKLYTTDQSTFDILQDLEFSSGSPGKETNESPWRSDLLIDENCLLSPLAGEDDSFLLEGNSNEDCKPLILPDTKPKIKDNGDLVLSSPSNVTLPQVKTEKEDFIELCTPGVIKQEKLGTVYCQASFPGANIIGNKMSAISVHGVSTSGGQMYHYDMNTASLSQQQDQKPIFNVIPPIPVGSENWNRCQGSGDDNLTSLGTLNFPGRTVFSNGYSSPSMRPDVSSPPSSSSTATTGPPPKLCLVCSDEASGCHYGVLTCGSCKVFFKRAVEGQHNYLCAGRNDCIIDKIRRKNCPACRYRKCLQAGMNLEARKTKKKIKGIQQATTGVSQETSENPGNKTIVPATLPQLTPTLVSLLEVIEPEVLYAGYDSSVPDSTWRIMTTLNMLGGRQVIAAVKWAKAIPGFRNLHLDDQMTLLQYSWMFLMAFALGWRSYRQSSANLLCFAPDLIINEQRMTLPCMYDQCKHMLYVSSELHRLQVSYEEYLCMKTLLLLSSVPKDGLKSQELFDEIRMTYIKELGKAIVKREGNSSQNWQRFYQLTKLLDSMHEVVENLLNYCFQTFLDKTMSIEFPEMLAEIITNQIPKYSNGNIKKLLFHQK
Method: Glucocorticoid Receptor Binding Assay
The ability of the substances to bind to the glucocorticoid receptor was determined with the help of a commercial Glucocorticoid Receptor Competitor Assay far red kit provided by Panvera/Invitrogen (PV4302). This kit is used as provided by the supplier. It contains some partially purified full length human recombinant glucocorticoid receptor, a coactivator related GR stabilizing peptide, a tight-binding fluorescent GR ligand Fluormone™ GS Far Red as labeled tracer and a screening buffer. All reagents are prepared and the assay is run according to the recommendations of the kit manufacturer.
Briefly, the GR stabilizing peptide and the human recombinant glucocorticoid receptor are both diluted with the screening buffer (pH 7.4) and are gently mixed (no vortexing) just before the assay and kept on ice until use. The fluorescent-labeled ligand is also diluted with the screening buffer just before the assay and kept on ice until use. The substances to test are pre-diluted in pure DMSO then some water is added to get an intermediate 4.2% DMSO stock solution. Ten microliter of the intermediate stock solution is gently mixed with 5 μl of diluted fluorescent-labeled ligand and 5 μl of diluted human recombinant glucocorticoid receptor in a 384-well plate (low volume, ultraclear, glass plate from Greiner ref 788896). The plate is centrifuged, sealed and incubated for 3 hours at 22° C. in the dark. The polarized fluorescence is measured with a Zeiss-HTS reader or any equivalent equipment (610-660 nm).
All compounds were tested to determine IC50 in a serial dilution experiment. The concentration at which 50% inhibition of the fluorescent GR ligand Fluormone™ GS Far Red is obtained (the IC50) is determined after fitting with a sigmoidal dose-response model of a plot of the logarithm of the concentration versus percent inhibition measured for the different concentrations. Ki's were calculated from IC50 based on Cheng-Prusoff equation (Cheng, Y, Prusoff, W H (1973) Biochem Pharmacol 22, 3099-3108): Ki=IC50/[1+D/Kd] wherein D is the concentration of the fluorescent ligand and Kd is the binding constant for the fluorescent ligand binding to the receptor under the conditions used in the competition experiment.

| SMILES | pKi |
| --- | --- |
| CCOC(=O)c1ccc(COc2ccc([C@@H](C)[C@@](O)(c3cnc(C)cn3)C(F)(F)F)c(Cl)c2)cc1 (racemic) [Example 1, 4-{3-Chloro-4-[3,3,3-trifluoro-2-hydroxy-1-methyl-2-(5-methyl-pyrazin-2-yl)-propyl]-phenoxymethyl}-benzoic acid ethyl ester] | 7.12 |
| Cc1cnc([C@](O)([C@H](C)c2ccc(OCc3ccc(C(C)C(=O)O)cc3)cc2Cl)C(F)(F)F)cn1 (stereo in doubt) [Example 18, 2-(4-{3-Chloro-4-[3,3,3-trifluoro-2-hydroxy-1-methyl-2-(5-methyl-pyrazin-2-yl)-propyl]-phenoxymethyl}-phenyl)-propionic acid] | 6.96 |
| C[C@@H](c1ccc(-c2ccc(C(=O)O)c(Cl)c2)cc1Cl)[C@](O)(c1ccc(=O)[nH]c1)C(F)(F)F (relative stereo) [Example 179, 3,3′-Dichloro-4′-[3,3,3-trifluoro-2-hydroxy-1-methyl-2-(6-oxo-1,6-dihydro-pyridin-3-yl)-propyl]-biphenyl-4-carboxylic acid] | 6.30 |
| CCOC(=O)c1noc(-c2ccc([C@@H](C)[C@@](O)(c3ccnc(Cl)c3)C(F)(F)F)c(Cl)c2)n1 (relative stereo) [Example 47, 5-{3-Chloro-4-[2-(2-chloro-pyridin-4-yl)-3,3,3-trifluoro-2-hydroxy-1-methyl-propyl]-phenyl}-[1,2,4]oxadiazole-3-carboxylic acid ethyl ester] | 7.33 |
| COC(=O)c1cnc(COc2ccc(C(C)C(O)(c3ccnc(Cl)c3)C(F)(F)F)c(Cl)c2)cn1 (stereo not drawn) [Example 112, 5-{3-Chloro-4-[2-(2-chloro-pyridin-4-yl)-3,3,3-trifluoro-2-hydroxy-1-methyl-propyl]-phenoxymethyl}-pyrazine-2-carboxylic acid methyl ester] | 8.04 |
| CC(c1ccc(N(c2ccc(C(=O)O)cn2)c2ccc(C(=O)O)cn2)cc1Cl)C(O)(c1ccnc(Cl)c1)C(F)(F)F (stereo not drawn) [Example 78, 6,6′-(3-Chloro-4-(3-(2-chloropyridin-4-yl)-4,4,4-trifluoro-3-hydroxybutan-2-yl)phenylazanediyl)dinicotinic acid] | 7.12 |
| COC(=O)c1ccc(CNC(=O)c2ccc([C@@H](C)[C@@](O)(c3ccnc(Cl)c3)C(F)(F)F)c(Cl)c2)cc1 (relative stereo) [Example 36, 4-({3-Chloro-4-[2-(2-chloro-pyridin-4-yl)-3,3,3-trifluoro-2-hydroxy-1-methyl-propyl]-benzoylamino}-methyl)-benzoic acid methyl ester] | 6.93 |
| CCOC(=O)C(C)(C)Oc1ccc([C@H](C)[C@](O)(c2ccc(=O)n(C)c2)C(F)(F)F)c(Cl)c1Cl (relative stereo) [Example 239, 2-{2,3-Dichloro-4-[3,3,3-trifluoro-2-hydroxy-1-methyl-2-(1-methyl-6-oxo-1,6-dihydro-pyridin-3-yl)-propyl]-phenoxy}-2-methyl-propionic acid ethyl ester] | 7.84 |
| CC(c1ccc(Oc2ccc(CC(=O)O)cc2)cc1Cl)C(O)(c1ccnc(Cl)c1)C(F)(F)F (stereo not drawn) [Example 79, (4-{3-Chloro-4-[2-(2-chloro-pyridin-4-yl)-3,3,3-trifluoro-2-hydroxy-1-methyl-propyl]-phenoxy}-phenyl)-acetic acid] | 7.87 |
| C[C@H](c1ccc(-c2ccc(F)c(C(=O)O)c2)cc1Cl)[C@@](O)(c1cnc2ccccc2c1)C(F)(F)F (relative stereo) [Example 226, 3′-Chloro-4-fluoro-4′-(3,3,3-trifluoro-2-hydroxy-1-methyl-2-quinolin-3-yl-propyl)-biphenyl-3-carboxylic acid] | 7.61 |
| CC(c1ccc(Oc2ccc(C(=O)O)cn2)cc1Cl)C(O)(c1ccnc(Cl)c1)C(F)(F)F (stereo not drawn) [Example 119, 6-{3-Chloro-4-[2-(2-chloro-pyridin-4-yl)-3,3,3-trifluoro-2-hydroxy-1-methyl-propyl]-phenoxy}-nicotinic acid] | 7.69 |

The next compounds have a higher pKi than those just listed; values first:

| pKi | SMILES |
| --- | --- |
| 8.09 | Cc1cnc([C@](O)([C@H](C)c2ccc(OCc3ccc(C(=O)O)cc3)cc2Cl)C(F)(F)F)cn1 [Example 6, 4-{3-Chloro-4-[(1R,2R)-3,3,3-trifluoro-2-hydroxy-1-methyl-2-(5-methyl-pyrazin-2-yl)-propyl]-phenoxymethyl}-benzoic acid] |
| 8.20 | C[C@H](c1ccc(Oc2ccc(C(=O)O)c(Cl)c2)cc1Cl)[C@@](O)(c1ccc(=O)n(C)c1)C(F)(F)F (stereo in doubt) [Example 154, 2-Chloro-4-{3-chloro-4-[3,3,3-trifluoro-2-hydroxy-1-methyl-2-(1-methyl-6-oxo-1,6-dihydro-pyridin-3-yl)-propyl]-phenoxy}-benzoic acid] |
| 8.21 | COC(=O)c1ccc(-c2ccc([C@H](C)[C@](O)(c3ccc(=O)n(C)c3)C(F)(F)F)c(Cl)c2)cc1F [Example 166, 3′-Chloro-3-fluoro-4′-[3,3,3-trifluoro-2-hydroxy-1-methyl-2-(1-methyl-6-oxo-1,6-didydro-pyridin-3-yl)-propyl]-biphenyl-4-carboxylic acid methyl ester] |
| 8.44 | Cc1nc(Oc2ccc([C@H](C)[C@](O)(c3cc(C)c(=O)n(C)c3)C(F)(F)F)c(Cl)c2)ccc1C(=O)O (stereo in doubt) [Example 255, 6-{3-Chloro-4-[2-(1,5-dimethyl-6-oxo-1,6-dihydro-pyridin-3-yl)-3,3,3-trifluoro-2-hydroxy-1-methyl-propyl]-phenoxy}-2-methyl-nicotinic acid] |
| 8.47 | C[C@H](c1ccc(Oc2ccc(C(=O)O)cc2)c(Cl)c1Cl)[C@@](O)(c1ccc(=O)n(C)c1)C(F)(F)F (stereo in doubt) [Example 198, 4-{2,3-Dichloro-4-[3,3,3-trifluoro-2-hydroxy-1-methyl-2-(1-methyl-6-oxo-1,6-dihydro-pyridin-3-yl)-propyl]-phenoxy}-benzoic acid] |
| 8.62 | COC(=O)c1ccc(Oc2ccc([C@@H](C)[C@@](O)(c3ccc(=O)n(C)c3)C(F)(F)F)c(Cl)c2)cc1 (relative stereo) [Example 151, 4-{3-Chloro-4-[3,3,3-trifluoro-2-hydroxy-1-methyl-2(1-methyl-6-oxo-1,6-dihydro-pyridin-3-yl)-propyl]-phenoxy}-benzoic acid methyl ester] |
| 8.70 | CCOC(=O)c1cc(Oc2ccc([C@H](C)[C@](O)(c3cc(C)c(=O)n(C)c3)C(F)(F)F)c(Cl)c2)ccc1Cl (relative stereo) [Example 210, 2-Chloro-5-{3-chloro-4-[2-(1,5-dimethyl-6-oxo-1,6-dihydro-pyridin-3-yl)-3,3,3-trifluoro-2-hydroxy-1-methyl-propyl]-phenoxy}-benzoic acid ethyl ester] |
| 8.89 | C[C@@H](c1ccc(OCc2ccc(C(=O)O)cc2)cc1Cl)[C@](O)(c1cccc2cnccc12)C(F)(F)F (stereo in doubt) [Example 148, 4-[3-Chloro-4-(3,3,3-trifluoro-2-hydroxy-2-isoquinolin-5-yl-1-methyl-propyl)-phenoxymethyl]-benzoic acid] |
| 9.30 | Cc1cc([C@@](O)([C@@H](C)c2ccc(Oc3ccc(C(=O)O)cn3)cc2Cl)C(F)(F)F)cn(C)c1=O [Example 246, 6-{3-Chloro-4-[(1S,2S)-2-(1,5-dimethyl-6-oxo-1,6-dihydro-pyridin-3-yl)-3,3,3-trifluoro-2-hydroxy-1-methyl-propyl]-phenoxy}-nicotinic acid] |
| 9.40 | Cc1cc([C@](O)([C@H](C)c2ccc(Oc3ccc(C(=O)O)cc3Cl)cc2Cl)C(F)(F)F)cn(C)c1=O [Example 245, 3-Chloro-4-{3-chloro-4-[(1R,2R)-2-(1,5-dimethyl-6-oxo-1,6-dihydro-pyridin-3-yl)-3,3,3-trifluoro-2-hydroxy-1-methyl-propyl]-phenoxy}-benzoic acid] |
